As a reminder, the inhibition is the relative decrease from the control value, in per cent. Low values mean little suppression, high ones strong suppression.

In this assay the target is T1, Epidermal Growth Factor Receptor (EGFR), extracellular domain (EGFR-ECD) (Homo sapiens, UniProt P00533).
T1 construct: full-length EGFR in DiscoverX PathHunter enzyme-complementation cells, EGF-stimulated
T1 sequence (P00533 25-1210): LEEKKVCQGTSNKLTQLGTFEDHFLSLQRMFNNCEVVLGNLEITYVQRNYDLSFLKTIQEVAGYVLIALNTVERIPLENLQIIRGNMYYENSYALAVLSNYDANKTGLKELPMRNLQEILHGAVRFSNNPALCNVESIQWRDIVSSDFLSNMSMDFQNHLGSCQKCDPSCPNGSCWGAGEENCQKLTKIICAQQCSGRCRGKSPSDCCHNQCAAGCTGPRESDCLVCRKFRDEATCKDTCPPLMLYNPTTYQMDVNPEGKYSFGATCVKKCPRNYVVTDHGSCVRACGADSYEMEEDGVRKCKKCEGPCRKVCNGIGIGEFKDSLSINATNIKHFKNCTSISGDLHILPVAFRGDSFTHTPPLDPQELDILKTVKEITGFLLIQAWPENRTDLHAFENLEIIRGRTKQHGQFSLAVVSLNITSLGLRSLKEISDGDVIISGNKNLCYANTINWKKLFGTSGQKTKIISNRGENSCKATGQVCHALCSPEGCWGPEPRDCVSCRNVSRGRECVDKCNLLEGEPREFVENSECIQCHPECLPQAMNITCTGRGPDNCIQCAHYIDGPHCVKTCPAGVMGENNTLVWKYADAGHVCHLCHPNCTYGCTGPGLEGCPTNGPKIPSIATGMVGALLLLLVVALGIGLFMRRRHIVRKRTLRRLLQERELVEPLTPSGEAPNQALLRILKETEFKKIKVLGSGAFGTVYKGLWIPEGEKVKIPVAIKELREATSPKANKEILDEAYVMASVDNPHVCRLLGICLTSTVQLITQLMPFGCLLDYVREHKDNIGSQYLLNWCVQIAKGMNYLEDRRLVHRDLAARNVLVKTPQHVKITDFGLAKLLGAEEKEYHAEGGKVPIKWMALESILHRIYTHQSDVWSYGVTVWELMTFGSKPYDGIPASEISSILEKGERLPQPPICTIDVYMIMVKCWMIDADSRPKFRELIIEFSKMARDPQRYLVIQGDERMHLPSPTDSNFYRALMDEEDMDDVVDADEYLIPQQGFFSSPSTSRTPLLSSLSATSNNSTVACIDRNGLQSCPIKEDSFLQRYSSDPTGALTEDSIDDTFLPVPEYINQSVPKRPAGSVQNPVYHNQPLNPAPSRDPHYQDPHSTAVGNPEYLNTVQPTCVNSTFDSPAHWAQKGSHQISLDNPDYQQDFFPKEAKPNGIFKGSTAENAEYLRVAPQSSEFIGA
As to the kind of experiment: cell-based. The arrangement: DiscoverX PathHunter EGFR dimerization/activation assay, chemiluminescence. Here is the method:
The inhibition of the EGFR dimerization assay was conducted using the PathHunter kit following the producer instructions and with cetuximab as a positive control. For IC50 determination, the selected compounds were tested at different concentration (range 0.1–100 µM) and the IC50 values were calculated by the four parameters logistic (4-PL) model. Evaluation was based on means from at least four independent experiments. The discovery of orally available small molecules able to impair the EGFR activation targeting the extracellular domain could be of great interest for cancer treatment. To pursue this goal, a suitable high/medium throughput screening method is required. In this respect, a commercially available kit (PathHunter® from DiscoverX©; San Francisco, CA, USA) for the screening of compounds able to prevent EGFR activation (either dimerization or autophosphorylation) has been developed in recent years. This assay measures the chemiluminescent signal produced as a consequence of ligand-induced dimerization/activation of EGFR [16]. Our interest in kinase inhibitors and the readily availability of such kit prompted us to start a campaign for the discovery of small molecules targeting the extracellular domain of EGFR.
For `Nc1ccc2cc3cc(N)ccc3cc2c1` [DSF001], the inhibition at 10 µM came out at 0% and the inhibition at 50 µM was 0%.
Consider `CC(=O)c1cccc2cc3c(C(C)=O)cccc3cc12` [DSF002], for which the inhibition at 10 µM was 0% and at 50 µM the inhibition was 0%.
For the compound `ClCc1c2ccccc2c(CCl)c2ccccc12` [DSF003], the inhibition at 10 µM came out at 35 ± 5% and at 50 µM the inhibition was 50 ± 1%.
Take `N#CCc1c2ccccc2c(CC#N)c2ccccc12` [DSF004]: at 10 µM the inhibition was 0% and testing at 50 µM gave an inhibition of 1 ± 1%.
Compound `O=C(O)c1cccc2cc3c(C(=O)O)cccc3cc12` [DSF005] showed an inhibition at 10 µM of 0% and an inhibition at 50 µM of 1 ± 4%.
In turn, `c1ccc2c(CN3CCOCC3)c3ccccc3c(CN3CCOCC3)c2c1` [DSF006] returned an inhibition at 10 µM of 19 ± 1% and an inhibition at 50 µM of 27 ± 4%.
In the same order, the values of `c1ccc2c(CN3CCCCC3)c3ccccc3c(CN3CCCCC3)c2c1` [DSF007] are 16 ± 4% and 16 ± 4%.
In the same order, the values of `CC(=O)Nc1ccc(O)c2c1C(=O)c1ccccc1C2=O` [DSF008] are 0% and 14 ± 2%.
In the case of `CS(=O)(=O)Nc1ccc(NC(=O)c2ccc3c(c2)C(=O)c2c(NCCOCCN)ccc(NCCOCCN)c2C3=O)cc1` [DSF009], the inhibition at 10 µM is 8 ± 1% and 50 µM produced 48 ± 1% inhibition.
Regarding `CS(=O)(=O)Nc1ccc(NC(=O)c2ccc3c(c2)C(=O)c2c(NCCN4CCNCC4)ccc(NCCN4CCNCC4)c2C3=O)cc1` [DSF010], the inhibition at 10 µM worked out at 28 ± 3% and testing at 50 µM gave an inhibition of 34 ± 2%.
`O=C(O)COCC(=O)OCc1cc(O)c2c(c1)C(=O)c1cccc(O)c1C2=O` [DSF011] came in with an inhibition at 10 µM of 9 ± 5% and an inhibition at 50 µM of 39 ± 1%.
Take `CC(NC(=O)C(NC(=O)OCc1ccccc1)C(C)C)C(=O)OCCCCCNc1ccc(NCCCCCOC(=O)C(C)NC(=O)C(NC(=O)OCc2ccccc2)C(C)C)c2c1C(=O)c1ccccc1C2=O` (stereo not drawn) [DSF012]: the inhibition at 10 µM amounted to 0% and the inhibition at 50 µM turned out to be 20 ± 5%.
On to `CC(NC(=O)C(NC(=O)OCc1ccccc1)C(C)C)C(=O)OCCCCCNc1ccc(NCCCCCO)c2c1C(=O)c1ccccc1C2=O` (stereo not drawn) [DSF013], for which at 10 µM the inhibition was 0% and the inhibition at 50 µM stood at 0%.
`C=CCOc1cccc2c1C(=O)c1cccc(OCC=C)c1C2=O` [DSF014] yielded an inhibition at 10 µM of 0% and an inhibition at 50 µM of 0%.
With `CN(C)CCNc1ccc(F)c2c1C(=O)c1ccccc1C2=O` [DSF015], at 10 µM the inhibition was 39 ± 4% and testing at 50 µM gave an inhibition of 48 ± 1%.
With `O=C1c2ccccc2C(=O)c2c(NCCNCCO)ccc(F)c21` [DSF016], the inhibition at 10 µM came to 33 ± 5% and the inhibition at 50 µM worked out at 25 ± 3%.
Consider `O=C(CN1CCCCC1)Nc1ccc(NC(=O)CN2CCCCC2)c2c1C(=O)c1ccccc1C2=O` [DSF017], for which the inhibition at 10 µM is 9 ± 2% and the inhibition at 50 µM stood at 14 ± 1%.
Regarding `O=C(CN1CCOCC1)Nc1ccc(NC(=O)CN2CCOCC2)c2c1C(=O)c1ccccc1C2=O` [DSF018], the inhibition at 10 µM came to 16 ± 3% and at 50 µM the inhibition was 38 ± 5%.
As to `O=C(CN1CCCCC1)Nc1ccc(NC(=O)CN2CCCCC2)c2c1C(=O)c1c(O)ccc(O)c1C2=O` [DSF019], the inhibition at 10 µM was found to be 35 ± 5% and the inhibition at 50 µM turned out to be 33 ± 1%.
In the same order, the values of `O=C(CN1CCOCC1)Nc1ccc(NC(=O)CN2CCOCC2)c2c1C(=O)c1c(O)ccc(O)c1C2=O` [DSF020] are 33 ± 5% and 29 ± 1%.
Consider `O=C(CCN1CCOCC1)Nc1ccc(NC(=O)CCN2CCOCC2)c2c1C(=O)c1ccccc1C2=O` [DSF021], for which the inhibition at 10 µM was 16 ± 4% and the inhibition at 50 µM came to 30 ± 5%.
`Nc1cccc(-c2cc(-c3ccccc3)ncn2)c1` [DSF022]: the inhibition at 10 µM stood at 0% and the inhibition at 50 µM worked out at 4 ± 4%.
In the same order, the values of `Nc1cccc(-c2cc(-c3ccc(C(=O)O)cc3)ncn2)c1` [DSF023] are 22 ± 1% and 8 ± 2%.
`O=C(O)c1ccc(-c2cc(-c3cccc(C(F)(F)F)c3)nc(O)n2)cc1` [DSF024] showed an inhibition at 10 µM of 16 ± 1% and an inhibition at 50 µM of 5 ± 3%.
Consider `O=C(O)c1ccc(-c2cc(-c3cccc(C(F)(F)F)c3)ncn2)cc1` [DSF025], for which at 10 µM the inhibition was 6 ± 5% and the inhibition at 50 µM was found to be 34 ± 1%.
Take `FC(F)(F)c1cccc(-c2cc(-c3ccccc3)ncn2)c1` [DSF026]: the inhibition at 10 µM was 0% and testing at 50 µM gave an inhibition of 0%.
For the compound `c1ccc(-c2cccc(-c3cc(-c4ccccc4)ncn3)c2)cc1` [DSF027], testing at 10 µM gave an inhibition of 0% and 50 µM produced 0% inhibition.
Compound `Brc1cccc(-c2cc(-c3ccccc3)ncn2)c1` [DSF028] came in with an inhibition at 10 µM of 0% and an inhibition at 50 µM of 0%.
As for `O=C(O)c1ccc(-c2ccc(-c3ccccc3)cc2O)cc1` [DSF029], the inhibition at 10 µM is 1 ± 4% and the inhibition at 50 µM was determined as 0%.
Taken in the same sequence, the figures for `O=C(NCc1ccccc1)c1ccc(-c2ccc(-c3ccccc3)cc2O)cc1` [DSF030] were 0% and 0%.
`COc1cccc(Nc2ccc3cc(-c4cccs4)c(=O)oc3n2)c1` [DSF031] showed an inhibition at 10 µM of 0% and an inhibition at 50 µM of 19 ± 1%.
On to `CSc1cccc(Nc2ccc3cc(-c4cccs4)c(=O)oc3n2)c1` [DSF032], for which the inhibition at 10 µM was 0% and the inhibition at 50 µM stood at 3 ± 5%.
For `COc1cccc(Nc2nc(N(C)C)c3cc(-c4c(Cl)cccc4Cl)c(=O)oc3n2)c1` [DSF033], at 10 µM the inhibition was 0% and testing at 50 µM gave an inhibition of 12 ± 3%.
Compound `COc1cccc(Nc2nc(O)c3cc(-c4c(Cl)cccc4Cl)c(=O)oc3n2)c1` [DSF034] returned an inhibition at 10 µM of 14 ± 2% and an inhibition at 50 µM of 0%.
As to `COc1cccc(Nc2nc(O)c3cc(-c4cc(OC)cc(OC)c4)c(=O)oc3n2)c1` [DSF035], the inhibition at 10 µM was 0% and the inhibition at 50 µM came out at 0%.
In the case of `COc1cccc(Nc2nc(O)c3cc(-c4ccccc4)c(=O)oc3n2)c1` [DSF036], 10 µM produced 0% inhibition and 50 µM produced 0% inhibition.
`O=c1oc2ncnc(Nc3cccc(-c4ccccc4)c3)c2cc1-c1c(Cl)cccc1Cl` [DSF037] returned an inhibition at 10 µM of 12 ± 4% and an inhibition at 50 µM of 40 ± 5%.
Regarding `Cc1cccc(Nc2ncnc3oc(=O)c(-c4c(Cl)cccc4Cl)cc23)c1` [DSF038], at 10 µM the inhibition was 0% and testing at 50 µM gave an inhibition of 24 ± 5%.
`CN1CCN(c2ncnc3oc(=O)c(-c4c(Cl)cccc4Cl)cc23)CC1` [DSF039] showed an inhibition at 10 µM of 0% and an inhibition at 50 µM of 10 ± 2%.
Turning to `CCOC(=O)c1cc2cnc(O)nc2oc1=O` [DSF040], the inhibition at 10 µM amounted to 0% and the inhibition at 50 µM turned out to be 0%.
Take `O=c1oc2nc(Nc3cccc(-c4ccccc4)c3)nc(O)c2cc1-c1cccc(Br)c1` [DSF041]: the inhibition at 10 µM was determined as 0% and the inhibition at 50 µM was determined as 0%.
In turn, `COC(=O)Cc1c(C)c2ccc(O)cc2oc1=O` [DSF042] gave an inhibition at 10 µM of 0% and an inhibition at 50 µM of 0%.
Turning to `COc1ccc2c(C)c(CC(=O)Nc3ccc(C(=O)O)cc3)c(=O)oc2c1` [DSF043], the inhibition at 10 µM worked out at 0% and the inhibition at 50 µM came to 0%.
`COc1ccc2c(C)c(CCC(=O)Nc3ccc(C(=O)O)cc3)c(=O)oc2c1C` [DSF044] displayed an inhibition at 10 µM of 0% and an inhibition at 50 µM of 0%.
`COc1ccc2c(C)c(CCC(=O)Nc3ccc(C(=O)O)cc3)c(=O)oc2c1` [DSF045]: the inhibition at 10 µM turned out to be 0% and the inhibition at 50 µM was 0%.
`COCCOc1ccc2c(C)c(CC(=O)Nc3ccc(C(=O)O)cc3)c(=O)oc2c1` [DSF046]: the inhibition at 10 µM was determined as 0% and the inhibition at 50 µM was 0%.
`COc1ccc2c(C)c(CC(=O)Nc3cccc(C(=O)O)c3)c(=O)oc2c1C` [DSF047] displayed an inhibition at 10 µM of 0% and an inhibition at 50 µM of 0%.
In turn, `COCCOc1ccc2c(C)c(CCC(=O)Nc3ccc(C(=O)O)cc3)c(=O)oc2c1` [DSF048] came in with an inhibition at 10 µM of 9 ± 3% and an inhibition at 50 µM of 3 ± 4%.
In turn, `Cc1c(CCC(=O)Nc2cccc(C(=O)O)c2)c(=O)oc2nc3oc4c(c3cc12)CCCC4` [DSF049] had an inhibition at 10 µM of 35 ± 2% and an inhibition at 50 µM of 36 ± 3%.
For `Cc1c(CC(=O)Nc2cccc(O)c2)c(=O)oc2c(C)c3oc4c(c3cc12)CCCC4` [DSF050], the inhibition at 10 µM was 24 ± 4% and the inhibition at 50 µM turned out to be 32 ± 2%.
Take `Cc1c(CC(=O)Nc2ccc(NS(C)(=O)=O)cc2)c(=O)oc2c(C)c3oc4c(c3cc12)CCCC4` [DSF051]: the inhibition at 10 µM amounted to 40 ± 1% and the inhibition at 50 µM is 50 ± 1%.
`CC(=O)Nc1ccc(NC(=O)Cc2c(C)c3cc4c5c(oc4c(C)c3oc2=O)CCCC5)cc1` [DSF052]: the inhibition at 10 µM came out at 41 ± 4% and the inhibition at 50 µM amounted to 49 ± 2%.
In the case of `Cc1c(CC(=O)Nc2ccc(C(N)=O)cc2)c(=O)oc2c(C)c3oc4c(c3cc12)CCCC4` [DSF053], the inhibition at 10 µM was determined as 39 ± 5% and 50 µM produced 43 ± 1% inhibition.
In the same order, the values of `Cc1c(C)c2cc3c4c(oc3c(O)c2oc1=O)CCCC4` [DSF054] are 8 ± 4% and 46 ± 4%.

The values above are taken from publication PMC9367601 (Cancers, 2022).
